In patent US8629157B2, “Pyrrolidine compounds which modulate the CB2 receptor” (Boehringer Ingelheim International GmbH, priority 2009, dated 2014) one finds EC50 data, which are given here for 37 molecules.

Structures are written as SMILES.

One experiment deals with human CB2R (Homo sapiens, UniProt P34972). The experiment in a line: CB2R mediated modulation of cAMP synthesis.
Chain of human CB2R (P34972 whole entry): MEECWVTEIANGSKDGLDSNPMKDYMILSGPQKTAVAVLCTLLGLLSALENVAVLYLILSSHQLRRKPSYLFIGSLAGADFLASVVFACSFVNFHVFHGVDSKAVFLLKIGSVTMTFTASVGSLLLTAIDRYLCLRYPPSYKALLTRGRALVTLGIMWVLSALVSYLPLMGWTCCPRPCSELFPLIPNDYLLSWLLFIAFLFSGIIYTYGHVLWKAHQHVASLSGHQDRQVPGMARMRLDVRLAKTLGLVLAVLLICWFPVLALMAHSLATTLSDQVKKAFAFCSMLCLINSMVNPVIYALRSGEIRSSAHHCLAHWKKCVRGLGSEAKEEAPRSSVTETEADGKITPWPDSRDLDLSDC
Conditions: not given
Type of experiment: cell-based. In short, it runs like this:
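CHO cells expressing human CB2R were treated 30 min at 37° C. with compounds in buffer containing 1 mM IBMX, 0.25% BSA and 10 uM forskolin; cAMP in lysates was measured by DiscoverX-XS kit.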
As to `O=C(NC1CCOCC1)[C@@H]1CCCN1c1ccc(Cl)cc1` [(S)-1-(4-Chloro-phenyl)-pyrrolidine-2-carboxylic acid (tetrahydro-pyran-4-yl)-amide], the response was half-maximal at 254 nM (EC50). With `C[C@@]1(C(=O)Nc2nc(-c3ccccc3)ns2)CCCN1c1ccc(C(F)(F)F)cn1` [(S)-2-Methyl-1-(5-trifluoromethyl-pyridin-2-yl)-pyrrolidine-2-carboxylic acid (3-phenyl-1,2,4-thiadiazol-5-yl)-amide], the EC50 (commonly the concentration needed to bring the measured effect to its halfway point) stood at 0.136 nM.

`CC(C)(C)c1cc(NC(=O)[C@@H]2CCC(=O)N2c2ccc(Cl)c(F)c2)on1` [(S)-1-(4-Chloro-3-fluoro-phenyl)-5-oxo-pyrrolidine-2-carboxylic acid (3-tert-butyl-isoxazol-5-yl)-amide]: the response was half-maximal at 14.2 nM (EC50). Regarding `CC(C)(C)c1nnc(NC(=O)[C@@H]2CCCN2CC2CC2)s1` [(S)-1-Cyclopropylmethyl-pyrrolidine-2-carboxylic acid (5-tert-butyl-1,3,4-thiadiazol-2-yl)-amide], the EC50 came to 340 nM.

For the molecule `CC(C)(C)c1cc(NC(=O)[C@@H]2CCC(=O)N2c2cc(F)c(F)c(F)c2)no1` [(S)-5-Oxo-1-(3,4,5-trifluoro-phenyl)-pyrrolidine-2-carboxylic acid (5-tert-butyl-isoxazol-3-yl)-amide], the EC50 came out at 74.7 nM. Same read-out and setting: the result for `CCCc1cc(NC(=O)[C@@H]2CCC(=O)N2c2ccc(Cl)cc2)on1` [(S)-1-(4-Chloro-phenyl)-5-oxo-pyrrolidine-2-carboxylic acid (3-propyl-isoxazol-5-yl)-amide] reads 263 nM. In turn, `CCC(C)N1CCC[C@H]1C(=O)Nc1nnc(C(C)(C)C)s1` (stereo partly shown) [1-sec-Butyl-pyrrolidine-2-carboxylic acid (5-tert-butyl-1,3,4-thiadiazol-2-yl)-amide] returned an EC50 of 390 nM. `CC(C)(C)C1CCC(NC(=O)[C@@H]2CCCN2c2ccc(Cl)cc2)CC1` (stereo partly drawn) [(S)-1-(4-Chloro-phenyl)-pyrrolidine-2-carboxylic acid (4-tert-butyl-cyclohexyl)-amide] registered an EC50 of 7.42 nM. The molecule `CC(C)(C)c1cc(NC(=O)[C@@H]2C[C@@H](O)CN2CC2CCOCC2)no1` [(2S,4R)-4-Hydroxy-1-(tetrahydro-pyran-4-ylmethyl)-pyrrolidine-2-carboxylic acid (5-tert-butyl-isoxazol-3-yl)-amide] showed an EC50 of 3.89 nM. The molecule `O=C(Nc1nc2cc(Cl)c(Cl)cc2[nH]1)[C@@H]1CCCN1C1CCOCC1` [(S)-1-(Tetrahydro-pyran-4-yl)-pyrrolidine-2-carboxylic acid (5,6-dichloro-1H-benzimidazol-2-yl)-amide] came in with an EC50 of 165 nM. The molecule `CC(C)(C)c1cc(NC(=O)[C@@H]2CCCN2S(=O)(=O)c2ccc(S(C)(=O)=O)cc2)no1` [(S)-1-(4-Methanesulfonyl-benzenesulfonyl)-pyrrolidine-2-carboxylic acid (5-tert-butyl-isoxazol-3-yl)-amide] returned an EC50 of 183 nM.

`CC(C)(C)c1cc(NC(=O)[C@@H]2C[C@@H](O)CN2c2ccc(C(F)(F)F)cn2)no1` [(2S,4R)-4-Hydroxy-1-(5-trifluoromethyl-pyridin-2-yl)-pyrrolidine-2-carboxylic acid (5-tert-butyl-isoxazol-3-yl)-amide] yielded an EC50 of 161 nM. In the case of `CC(C)(C)c1cc(NC(=O)[C@@H]2CCC(=O)N2c2ccc(Cl)c(F)c2)no1` [(S)-1-(4-Chloro-3-fluoro-phenyl)-5-oxo-pyrrolidine-2-carboxylic acid (5-tert-butyl-isoxazol-3-yl)-amide], the midpoint of the response, the EC50, lay at 12.7 nM. As to `COc1ccc(N2C(=O)CC[C@H]2C(=O)Nc2cc(C(C)(C)C)no2)nc1` [(S)-1-(5-Methoxy-pyridin-2-yl)-5-oxo-pyrrolidine-2-carboxylic acid (3-tert-butyl-isoxazol-5-yl)-amide], a half-maximal effect (EC50) was put at 22.1 nM.

For `COCC(C)(C)c1cc(NC(=O)[C@@H]2CCC(=O)N2c2ccc(Cl)cc2)on1` [(S)-l-(4-Chloro-phenyl)-5-oxo-pyrrolidine-2-carboxylic acid [3-(2-methoxy-1,1-dimethyl-ethyl)-isoxazol-5-yl]-amide], the EC50 came out at 48.7 nM. The same measure, in the same setting: the result for `CC(C)(C)SCCNC(=O)[C@@H]1CCCN1c1ccc(Cl)cc1` [(S)-1-(4-Chloro-phenyl)-pyrrolidine-2-carboxylic acid (2-tert-butylsulfanyl-ethyl)-amide] reads 2.61 nM.

Regarding `CC(C)(C)c1cc(NC(=O)[C@@H]2CCCN2CC2CCCCC2)on1` [(S)-1-Cyclohexylmethyl-pyrrolidine-2-carboxylic acid (3-tert-butyl-isoxazol-5-yl)-amide], the EC50 was 0.079 nM. For the molecule `CC(C)(C)c1cc(NC(=O)[C@@H]2CCCN2C2CCCC2)on1` [(S)-1-Cyclopentyl-pyrrolidine-2-carboxylic acid (3-tert-butyl-isoxazol-5-yl)-amide], the response was half-maximal at 2.39 nM (EC50). Same read-out and setting: the result for `CC(C)(C)c1cc(NC(=O)[C@@H]2CCC(=O)N2c2ccc(OC(F)(F)F)cc2)no1` [(S)-5-Oxo-1-(4-trifluoromethoxy-phenyl)-pyrrolidine-2-carboxylic acid (5-tert-butyl-isoxazol-3-yl)-amide] reads 132 nM; that for `CC1(C)CC(=O)C=C(NC(=O)[C@@H]2CCCN2c2ccc(Cl)cc2)C1` [(S)-1-(4-Chloro-phenyl)-pyrrolidine-2-carboxylic acid (5,5-dimethyl-3-oxo-cyclohex-1-enyl)-amide], 17.9 nM. Same read-out and setting: the result for `CCCS(=O)(=O)N1CCC[C@H]1C(=O)Nc1cc(C(C)(C)C)on1` [(S)-1-(Propane-1-sulfonyl)-pyrrolidine-2-carboxylic acid (5-tert-butyl-isoxazol-3-yl)-amide] reads 120 nM. On to `COCC(C)(C)c1cc(NC(=O)[C@@H]2CCC(=O)N2c2ccc(C(F)(F)F)cc2)no1` [(S)-5-Oxo-1-(4-trifluoromethyl-phenyl)-pyrrolidine-2-carboxylic acid [5-(2-methoxy-1,1-dimethyl-ethyl)-isoxazol-3-yl]-amide], for which the 50% effective concentration (EC50) was 15.2 nM. With `Cc1ccc(NC(=O)[C@@H]2CCCN2c2ccc(Cl)cc2)nc1` [(S)-1-(4-Chloro-phenyl)-pyrrolidine-2-carboxylic acid (5-methyl-pyridin-2-yl)-amide], the midpoint of the response, the EC50, lay at 120 nM. Still for that read-out and setting: the result for `O=C(NCC1CCOCC1)[C@@H]1CCCN1c1ccc(Cl)cc1` [(S)-1-(4-Chloro-phenyl)-pyrrolidine-2-carboxylic acid (tetrahydro-pyran-4-ylmethyl)-amide] reads 415 nM; that for `CC(C)(C)c1csc(NC(=O)[C@@H]2CCCN2CC2CCOCC2)n1` [(S)-1-(Tetrahydro-pyran-4-ylmethyl)-pyrrolidine-2-carboxylic acid (4-tert-butyl-thiazol-2-yl)-amide], 17.6 nM; that for `O=C(Nc1nc(C2CCCCC2)cs1)[C@@H]1C[C@@H](O)CN1CC1CCOCC1` [(2S,4R)-4-Hydroxy-1-(tetrahydro-pyran-4-ylmethyl)-pyrrolidine-2-carboxylic acid (4-cyclohexyl-thiazol-2-yl)-amide], 150 nM.

The molecule `C=Cc1ccc(N2C(=O)CC[C@H]2C(=O)Nc2cc(C(C)(C)C)no2)cc1` [(S)-5-Oxo-1-(4-vinyl-phenyl)-pyrrolidine-2-carboxylic acid (3-tert-butyl-isoxazol-5-yl)-amide] had an EC50 of 20.3 nM. Still for that read-out and setting: the result for `CC(C)(C)c1cc(NC(=O)[C@@H]2CCCN2c2ncc(Cl)cc2F)on1` [(S)-1-(5-Chloro-3-fluoro-pyridin-2-yl)-pyrrolidine-2-carboxylic acid (3-tert-butyl-isoxazol-5-yl)-amide] reads 0.02 nM; that for `CC(C)(CO)c1cc(NC(=O)[C@@H]2CCC(=O)N2c2ccc(Cl)cc2)on1` [(S)-1-(4-Chloro-phenyl)-5-oxo-pyrrolidine-2-carboxylic acid [3-(2-hydroxy-1,1-dimethyl-ethyl)-isoxazol-5-yl]-amide], 152 nM. The same measure, in the same setting: the result for `Cc1cc(N2C(=O)CC[C@H]2C(=O)Nc2cc(C(C)(C)C)on2)ccc1Cl` [(S)-1-(4-Chloro-3-methyl-phenyl)-5-oxo-pyrrolidine-2-carboxylic acid (5-tert-butyl-isoxazol-3-yl)-amide] reads 59.4 nM; that for `CC(C)(C)c1cc(NC(=O)[C@@H]2CCC(=O)N2c2ccc(C(F)(F)F)c(F)n2)on1` [(S)-1-(6-Fluoro-5-trifluoromethyl-pyridin-2-yl)-5-oxo-pyrrolidine-2-carboxylic acid (3-tert-butyl-isoxazol-5-yl)-amide], 8.05 nM. Regarding `O=C(Nc1nc(-c2ccccc2)ns1)[C@@H]1CCCN1CC1CCOCC1` [(S)-1-(Tetrahydro-pyran-4-ylmethyl)-pyrrolidine-2-carboxylic acid (3-phenyl-1,2,4-thiadiazol-5-yl)-amide], a half-maximal effect (EC50) was put at 40 nM.

The same experiment, now with this note: CHO cells expressing human CB2R; inhibition of forskolin-stimulated cAMP synthesis; mean; read-out: CB2 CAMP @ EC50 nM (mean).
Regarding `CC(C)(C)OC(=O)CCN1CCC[C@H]1C(=O)Nc1cc(C(C)(C)C)no1` [3-[(S)-2-(3-tert-Butyl-isoxazol-5-ylcarbamoyl)-pyrrolidin-l-yl]-propionic acid tert-butyl ester], the EC50 was found to be 20 nM. For the molecule `COc1ccc(-c2nsc(NC(=O)[C@@H]3CCC(=O)N3c3ccc(Cl)cc3)n2)cc1` [(S)-1-(4-Chloro-phenyl)-5-oxo-pyrrolidine-2-carboxylic acid [3-(4-methoxy-phenyl)-1,2,4-thiadiazol-5-yl]-amide], the EC50 is 194 nM. On to `CCCc1cc(NC(=O)[C@@H]2C[C@@H](O)CN2CC2CCOCC2)on1` [(2S,4R)-4-Hydroxy-1-(tetrahydro-pyran-4-ylmethyl)-pyrrolidine-2-carboxylic acid (3-propyl-isoxazol-5-yl)-amide], for which the EC50 was 248 nM. Take `O=C(Nc1nc2cc(F)ccc2[nH]1)[C@@H]1CCCN1C1CCOCC1` [(S)-1-(Tetrahydro-pyran-4-yl)-pyrrolidine-2-carboxylic acid (5-fluoro-1H-benzimidazol-2-yl)-amide]: the EC50 is 391 nM. `CC(C)(C)c1nnc(NC(=O)[C@@H]2CCCN2C2CC2)s1` [(S)-1-Cyclopropyl-pyrrolidine-2-carboxylic acid (5-tert-butyl-1,3,4-thiadiazol-2-yl)-amide]: the EC50 amounted to 109 nM.
